Test results: publication PMC8557474, “Reliability of the AR-CALUX®In Vitro Method Used to Detect Chemicals with (Anti)Androgen Activity: Results of an International Ring Trial” (Toxicological Sciences, 2021)
Values after ≈ are worked out from the molar mass of the structure shown. Starred links: 1 amine or outer side, 2 acyl side, 3 side chain; linkers in the order of their positions; H or OH if unused. Positions of bridges follow the written chain, without caps; N, C: chain ends. Non-standard residues stand in square brackets, D forms with d. Residues, ends and D or L forms follow the SMILES beside them. Chains are numbered I, II in the order given. Actinocin(9to1) = Cc1c2oc3c(C)ccc(C(=O)[*:1])c3nc-2c(C(=O)[*:2])c(N)c1=O; NMeV = CN[C@H](C(=O)O)C(C)C; Sar = CNCC(=O)O

Key:
[1] = physchem
Procedure: It details the cell cultivation and seeding procedure, the preparation of the reference, control and test chemicals, the procedure for agonist testing and antagonist testing, prescreen runs, and comprehensive runs, as well as data analysis and data interpretation. This SOP also includes references to the SOPs for solubility testing and cytotoxicity testing. […] Solubility was tested both in the solvent and in media under similar circumstances as would be required during the (ant)agonist testing. The initial concentration to be tested was prescribed at 50 mg/ml. Starting from the highest soluble concentration, cytotoxicity was determined with an LDH assay. Visual checking of cytotoxicity in all wells of the plate was however also required for each run.
This included an investigation by heating, centrifugation, microscopy, and visual checking. […] For the purpose of the validation study, the labs were requested to start from 50 mg/ml as the maximal stock concentration to be tested.

[2] = biological target: T1, human androgen receptor (hAR) (Homo sapiens, UniProt P10275); test: cell-based; format: cell-based; details: for Agonist classification per run, Lab 1: Lab 1, 3 runs; for Agonist classification per run, Lab 2: Lab 2, 3 runs; for Agonist classification per run, Lab 3: Lab 3, 3 runs; for Agonist classification per run, Lab 4: Lab 4, 3 runs
T1 construct: host or cells: U2-OS human osteosarcoma cells (ATCC HTB 96), stably transfected (AR-CALUX cell line)
T1 sequence (P10275 1-920): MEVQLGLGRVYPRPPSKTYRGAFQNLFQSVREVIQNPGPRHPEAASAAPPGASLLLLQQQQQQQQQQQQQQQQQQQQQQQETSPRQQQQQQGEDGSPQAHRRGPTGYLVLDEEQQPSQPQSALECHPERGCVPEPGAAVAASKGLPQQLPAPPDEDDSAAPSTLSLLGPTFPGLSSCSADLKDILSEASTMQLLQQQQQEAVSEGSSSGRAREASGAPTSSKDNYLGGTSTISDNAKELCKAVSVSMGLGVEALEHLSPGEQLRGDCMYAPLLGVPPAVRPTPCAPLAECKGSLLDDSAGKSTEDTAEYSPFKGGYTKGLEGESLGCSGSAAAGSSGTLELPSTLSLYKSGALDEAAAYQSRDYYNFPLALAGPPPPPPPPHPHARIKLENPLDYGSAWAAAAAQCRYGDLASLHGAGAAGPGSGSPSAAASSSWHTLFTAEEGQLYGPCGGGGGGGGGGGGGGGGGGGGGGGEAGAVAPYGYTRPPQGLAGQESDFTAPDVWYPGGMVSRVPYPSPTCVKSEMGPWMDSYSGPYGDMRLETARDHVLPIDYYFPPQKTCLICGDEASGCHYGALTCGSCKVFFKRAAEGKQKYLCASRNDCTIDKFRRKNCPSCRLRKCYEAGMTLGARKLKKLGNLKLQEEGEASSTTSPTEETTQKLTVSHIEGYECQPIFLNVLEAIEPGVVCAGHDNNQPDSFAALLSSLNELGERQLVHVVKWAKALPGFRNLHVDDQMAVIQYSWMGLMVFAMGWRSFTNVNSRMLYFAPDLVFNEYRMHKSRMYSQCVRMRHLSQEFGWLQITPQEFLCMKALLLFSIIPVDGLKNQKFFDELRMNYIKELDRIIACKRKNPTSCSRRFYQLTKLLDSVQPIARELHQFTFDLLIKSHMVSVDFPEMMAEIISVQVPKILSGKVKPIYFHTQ
Excerpt: (§1) The AR-CALUX® cell line was created by BioDetection Systems (BDS). It can be purchased from BDS with a license (https://www.biodetectionsystems.com). The human osteosarcoma cell line U2-OS (ATCC HTB 96) was transfected with 2 constructs: pSG5-neo-hAR carrying the cDNA of a human androgen receptor (hAR) under a constitutive promoter, and, a luciferase reporter gene which is preceded by a triple tandem of AREs in front of a TATA box (3x ARE Luc). […] The AR-CALUX® cell line was obtained from the test method developer BDS. EURL ECVAM prepared a master cell bank and a large working cell bank which were tested for the absence of mycoplasma, bacteria, fungi, and yeast and for the absence of Hepatitis B and C and HIV. In addition, to verifying the authenticity of the cell line, Short Tandem Repeat (STR) profiling was carried out to confirm the test system to be U2-OS cells. […] The laboratories were requested, at the end of each part of the study (Parts 1, 2, and 3), to perform a mycoplasma test of their choice. Additional aliquots were sent to EURL ECVAM for a reanalysis of authenticity.
(§2) Subsequently, the test chemical was assessed with a prescreen run (dilution steps of 10) and simultaneously with the quantitative cytotoxicity test to determine (1) cytotoxic concentrations, (2) the response, and (3) the appropriate dose range to be tested. […] The cytotoxicity test was performed once more. Test chemicals were diluted in media and consisted of 8 serial dilutions. Each dilution was tested in triplicate.
(§3) Each experiment (run) was comprised of a maximum of 6 plates. The first plate would contain 8 serial dilutions of the reference chemical DHT (for agonism) or Flutamide (for antagonism), while the positive and negative controls were added at fixed concentrations. In addition, a solvent control was added (medium without the chemical but with DMSO 0.1%).
A. Positive when the relative induction (Yc) of the test item is ≥ 10% (REF RPC10) for two or more consecutive concentrations.

[3] = biological target: T1, human androgen receptor (hAR); test: AR-CALUX antagonist assay (medium spiked with DHT at EC50); format: cell-based; details: for Antagonist classification per run, Lab 1: Lab 1, 3 runs; for Antagonist classification per run, Lab 2: Lab 2, 3 runs; for Antagonist classification per run, Lab 3: Lab 3, 3 runs; for Antagonist classification per run, Lab 4: Lab 4, 3 runs; for AR-CALUX Antagonist classification: mean of classifications, specificity control taken into account
Excerpt: as §1, §2, §3
(§4) For the antagonist assay, the medium was supplemented with DHT at EC50 concentration (standard assay). […] Each antagonist assay was accompanied by a specificity control test carried out on the same plate.
A. Positive (competitive antagonist) when the relative induction (Yc) of the test item is ≤ 80% (REF RPC80) for two or more consecutive concentrations and […]

[4] = tested on: androgen receptor; parameters: method as in Park et al., 2021; details: ref Park et al., 2021; cited from earlier work
[5] = tested on: androgen receptor; details: ref OECD, 2020b; cited from earlier work
[6] = biological target: T1, human androgen receptor (hAR); format: cell-based; details: for Classification Run1: run 1; for Classification Run3: run 3; for Shift Direction of specificity control dose response: vs standard antagonist dose response
Excerpt: as §4
the square of the correlation coefficient (R^2) is ≤ 0.9 between the relative induction of the test item (Yc) and its specificity control (Sc)

Compound	Agonist classification per run, Lab 1 [2]	Agonist classification per run, Lab 2 [2]	Agonist classification per run, Lab 3 [2]	Agonist classification per run, Lab 4 [2]	Antagonist classification per run, Lab 1 [3]	Antagonist classification per run, Lab 2 [3]	Antagonist classification per run, Lab 3 [3]	Antagonist classification per run, Lab 4 [3]	Scn (normalized dose response for the specificity control) [6] [%]	Classification Run1 ([6]; antagonist)	Classification Run3 ([6]; antagonist)	Shift Direction of specificity control dose response [6]	AR-CALUX antagonist result in words [3]	AR-CALUX Antagonist classification [3]	other results
CC(C)(c1ccc(O)cc1)c1ccc(O)cc1 [Bisphenol A]	N N N	N N N	N N N	N N N	P P P	P P P	P P P	P P P	–	–	–	–	–	–	solubility ([1]; aqueous buffer, kinetic from dmso stock, Solubility in medium, Lab 1): 15 µg/mL (≈ 65.7 µM); solubility ([1]; aqueous buffer, kinetic from dmso stock, Solubility in medium, Lab 2): > 50 µg/mL; solubility ([1]; aqueous buffer, kinetic from dmso stock, Solubility in medium, Lab 3): > 50 µg/mL; solubility ([1]; aqueous buffer, kinetic from dmso stock, Solubility in medium, Lab 4): > 50 µg/mL; solubility ([1]; organic solvent or mixture, thermodynamic from solid, Solubility in DMSO, Lab 1): > 50000 µg/mL; solubility ([1]; organic solvent or mixture, thermodynamic from solid, Solubility in DMSO, Lab 2): > 50000 µg/mL; solubility ([1]; organic solvent or mixture, thermodynamic from solid, Solubility in DMSO, Lab 3): > 50000 µg/mL; solubility ([1]; organic solvent or mixture, thermodynamic from solid, Solubility in DMSO, Lab 4): > 50000 µg/mL; IC50 ([3]; logIC50 averaged over 4 labs, 3 valid runs per lab, read-out: Antagonist Overall logIC50 (converted)): 1380 nM
C#C[C@]1(O)CC[C@H]2[C@@H]3CCc4cc(O)ccc4[C@H]3CC[C@@]21C [17α-Ethynyl estradiol]	–	–	–	–	–	–	–	–	–	–	–	–	–	–	22Rv1/MMTV/GR-KO TA agonist result in words [4]: positive; AR-EcoScreen agonist result in words [5]: negative
CCN(CC)C(=S)SSC(=S)N(CC)CC [Disulfiram]	N N N	N N N	N N N	N N N	N N N	N N N	N N N	N N N	–	–	–	–	–	–	solubility ([1]; aqueous buffer, kinetic from dmso stock, Solubility in medium, Lab 1, assay medium, Lab 1): 5 µg/mL (≈ 16.9 µM); solubility ([1]; aqueous buffer, kinetic from dmso stock, Solubility in medium, Lab 2, assay medium, Lab 2): 15 µg/mL (≈ 50.6 µM); solubility ([1]; aqueous buffer, kinetic from dmso stock, Solubility in medium, Lab 3, assay medium, Lab 3): 15 µg/mL (≈ 50.6 µM); solubility ([1]; aqueous buffer, kinetic from dmso stock, Solubility in medium, Lab 4, assay medium, Lab 4): 15 µg/mL (≈ 50.6 µM); solubility ([1]; organic solvent or mixture, thermodynamic from solid, Solubility in DMSO, Lab 1, DMSO, Lab 1, highest tested 50 mg/ml): > 50000 µg/mL; solubility ([1]; organic solvent or mixture, thermodynamic from solid, Solubility in DMSO, Lab 2, DMSO, Lab 2, highest tested 50 mg/ml): > 50000 µg/mL; solubility ([1]; organic solvent or mixture, thermodynamic from solid, Solubility in DMSO, Lab 3, DMSO, Lab 3, highest tested 50 mg/ml): > 50000 µg/mL; solubility ([1]; organic solvent or mixture, thermodynamic from solid, Solubility in DMSO, Lab 4, DMSO, Lab 4, highest tested 50 mg/ml): > 50000 µg/mL
[N-]=[N+]=[N-].[Na+] [Sodium azide]	N N N	N N N	N N N	N N N	N N N	N N N	N N N	N N N	–	–	–	–	–	–	Solubility in DMSO, Lab 1 ([1]; DMSO, Lab 1, highest tested 50 mg/ml): 15000 µg/mL; Solubility in DMSO, Lab 2 ([1]; DMSO, Lab 2, highest tested 50 mg/ml): 15000 µg/mL; Solubility in DMSO, Lab 3 ([1]; DMSO, Lab 3, highest tested 50 mg/ml): 15000 µg/mL; Solubility in DMSO, Lab 4 ([1]; DMSO, Lab 4, highest tested 50 mg/ml): 15000 µg/mL; Solubility in medium, Lab 1 ([1]; assay medium, Lab 1): 15 µg/mL; Solubility in medium, Lab 2 ([1]; assay medium, Lab 2): 15 µg/mL; Solubility in medium, Lab 3 ([1]; assay medium, Lab 3): 15 µg/mL; Solubility in medium, Lab 4 ([1]; assay medium, Lab 4): 5 µg/mL
Cc1c2oc3c(C)ccc(C(=O)N[C@@H]4C(=O)N[C@H](C(C)C)C(=O)N5CCC[C@H]5C(=O)N(C)CC(=O)N(C)[C@@H](C(C)C)C(=O)O[C@@H]4C)c3nc-2c(C(=O)N[C@@H]2C(=O)N[C@H](C(C)C)C(=O)N3CCC[C@H]3C(=O)N(C)CC(=O)N(C)[C@@H](C(C)C)C(=O)O[C@@H]2C)c(N)c1=O [Actinomycin D] (I: T[dV]P[Sar][NMeV] / II: T[dV]P[Sar][NMeV]; ester I:1-I:C, II:1-II:C; linker I:N-II:N via Actinocin(9to1))	–	–	–	–	–	–	–	–	>80	N	N(FP)	Right	false positive response	N(FP)	Classification Run2 ([6]; antagonist, run 2): N(FP)
C[C@]12CC[C@@H]3c4ccc(O)cc4C[C@@H](CCCCCCCCC[S+]([O-])CCCC(F)(F)C(F)(F)F)[C@H]3[C@@H]1CC[C@@H]2O (stereo partly shown) [Fulvestrant]	–	–	–	–	–	–	–	–	>80	N(FP)	N(FP)b	Right	false positive	N(FP)	–
